From a melting point compilation (Tetko et al.; mined from patent text by program, amines drawn as free bases though some values may be those of a salt)

SMILES	melting point
CCn1cc(-c2coc3ccc(-c4nnc(C)o4)cc23)cn1	122 to 123 °C
CN1CCN(C2=Nc3ccccc3Cn3cccc32)CC1	139 to 141 °C
COC(=O)Nc1ccccc1-c1c(C(=O)OC)c2cc(OC)c(OC)cc2c(=O)n1C	165 to 170 °C
COc1ccc(C(=O)NCc2ccccc2)c2c1oc1ccc(NC(C)=O)cc12	264 to 265 °C
ClCc1csc(-c2ccc(Cl)c(Cl)c2)n1	93 to 96 °C
COc1ccc(C(=O)Nc2ccc(F)cc2)cc1Nc1cccc(C(F)(F)F)c1	163 to 164 °C
CN1C(=O)Cn2c(CCl)nnc2-c2cc(Cl)ccc21	193 to 194 °C
COc1ccc(Cl)c2c1[nH]c(=O)n1nc(CO)cc21	221 to 222 °C
CCOc1cc(CCCC2OC(=O)NC2=O)ccc1OCc1nc(-c2ccccc2)oc1C (stereo not given)	129 to 130 °C
Fc1cc(F)cc(-c2cccc3[nH]c4c(c23)CCN(Cc2ccccc2)CC4)c1	172 to 175 °C
CCOC(=O)C=Cc1ccc(N(CCOC)C(=O)c2ccncc2)cc1	98.4 to 102 °C
Nc1c(Cl)cc(Nc2ncnc3cnc(N[C@H]4CC[C@H](C(=O)N5CCCC5)CC4)nc23)cc1Cl	228 to 230 °C
COCO[C@@H]1[C@H]2OC(C)(C)O[C@H]2[C@H](O[C@H]2C[C@H]3OC(C)(C)OC[C@]34C3C(CC[C@]4(O)C2)[C@@]2(O)CC[C@H](CO)[C@@]2(C)C[C@H]3OCOC)O[C@H]1C (stereo not given in full)	126 to 129 °C
O=C1CCCc2onc(-c3ccccc3[N+](=O)[O-])c21	125 to 127 °C
CCC[C@@H]1O[C@](/C=C/C2CC2)(C(F)(F)F)c2cc(Cl)ccc2NC1=O (relative stereo)	165 to 167 °C
CCCNC(=O)C1(CCCc2ccccc2)c2ccccc2Sc2ccccc21	130 to 131 °C
CN1C(=O)C(NC(=O)OC(C)(C)C)CC(=O)c2ccccc21 (stereo not given)	205 to 206 °C
CCCCCCCCCc1ccc(C(=O)CC(=O)C(=O)OC)cc1	52 to 53.5 °C
OC1CSC(Oc2cc(F)cnc2Cl)C(O)C1O (stereo not given)	143 °C
CCOC(=O)Cc1c(Cl)nc(-c2ccccc2)n1Cc1ccccc1	72 to 73 °C
CCOC(=O)c1cc(OCCOC)c(OCCOC)cc1[N+](=O)[O-]	50 to 51 °C
O=Cc1cccc(OC(=O)C(=O)Oc2cccc(C=O)c2)c1	163 to 166 °C
COc1ccc(N2CCOCC2)c2sc(-c3nc4ccccc4n3C)nc12	283 to 285 °C
CC(=O)Oc1c(C)cc(C=CC(=O)Nc2cnc3c(C)cc(C)cc3c2-c2ccccc2Cl)cc1C	207 to 208 °C
COc1ccc(Cl)cc1[C@]1(F)C(=O)N(C(=O)NC(C)(C)C(=O)OC(C)(C)C)c2cc(C(F)(F)F)ccc21	57 to 60 °C

SMILES	melting point
COc1nccc(-c2c(-c3ccc(F)cc3)ncn2C2CCC(O)(CO)CC2)n1 (stereo not given)	225 to 226 °C
COc1cc2ncc(C#N)c(Nc3ccccc3SC)c2cc1OC	245 to 247 °C
CCC1=NNC(C)=C(C(=O)OCc2ccccc2)C1c1cccc([N+](=O)[O-])c1 (stereo not given)	154 °C
CC(C(=O)O)c1ccc2c(c1)C(=O)Cc1ccccc1C2 (stereo not given)	134 to 136 °C
O=C(Nc1cccnn1)N1CCN(c2ccnc(-c3cccc(F)c3F)n2)CC1	235 to 236 °C
COc1ccc(C2CSc3ccccc3N(CCCl)C2=O)cc1 (stereo not given)	70 °C
COC(=O)CC(=O)c1ccc(O)cc1	90 to 92 °C
CCOCc1nc2nc(O)cnc2c(=O)[nH]1	255 to 256 °C
CCNc1ncccc1-c1sccc1-c1cccnc1F	86 to 89 °C
OCc1cccc(C=Cc2cccc(-c3ccsc3)c2)c1	79 to 81 °C
Oc1ccc(C2OCCO2)cc1Br	76 to 78 °C
Cc1ccc(S(=O)(=O)ON=C(CCN2C(=O)c3ccccc3C2=O)n2nc(C)c(Cl)c2N)cc1	168 to 171 °C
CC(C)(CO)NS(=O)(=O)c1cncc(Br)c1	112 °C
Cc1nnc(-c2ccc3occ(-c4ccc(S(C)(=O)=O)cc4Cl)c3c2)o1	198 to 199 °C
CCOC(=O)c1cn(-c2cnsn2)c2cc(F)c(F)cc2c1=O	189 to 192 °C
CC(=O)N1CC(=O)NC(Cc2cccc(NC(=O)OC(C)(C)C)c2)C1=O (stereo not given)	189 to 190 °C
CCCCNc1cc(CN(Cc2ccccc2)C(=O)c2ccccc2)cc(S(N)(=O)=O)c1Oc1ccccc1	137 to 138 °C
Cc1nnc(C(O)CCCCCCOc2ccccc2)o1 (stereo not given)	50 to 52 °C
CC(=O)OCCn1ccc(=O)c(O)c1Cc1ccccc1	140 to 141 °C
O=S(=O)(Nc1ccccc1Oc1ccc2ncccc2c1)c1ccc(Cl)cc1	151 to 152 °C
Cc1cccc(OC2CCOC2=O)c1[N+](=O)[O-] (stereo not given)	82 to 84 °C
CCOC(=O)COc1ccc([N+](=O)[O-])cc1C(F)(F)F	45 to 46 °C
CN1C(=O)CC2(CCc3cc4ccccc4n3C2)C1=O (stereo not given)	158 to 164 °C
COc1cccc2c1sc1[nH]c(=O)c(=O)[nH]c12	> 300 °C
CC1(C)CC(NC(=O)Nc2ccc(C(F)(F)F)cc2)CC(C)(C)C1=O	152 to 153 °C
